According to US20230265116A1, “DEGRADATION OF (EGFR) BY CONJUGATION OF EGFR INHIBITORS WITH E3 LIGASE LIGAND AND METHODS OF USE” (BEIGENE, LTD., priority 2020, published 2023):

Assays:
EGFR (HCC827 cells) = target: T1, EGFR (HCC827 cells) (Homo sapiens, UniProt P00533, DEL746-750); experiment: EGFR degradation HTRF assay, HCC827 cells; assay type: cell-based; conditions: HCC827, 16h treatment; for Dmax: maximum percentage of degradation
T1 construct: endogenous in cells; host or cells: HCC827
In short: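 BaF3 (WT, Del19/T790M/C797S) and HCC827 cells exposed 16 h at 37 °C, 5% CO2 to compounds in 0.2% DMSO medium, 8 doses from 10 uM top, 5-fold steps. Lysates read by HTRF (665/620 nm); degradation % vs DMSO control, DC50 from four-parameter fit, Dmax as maximal degradation.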

[1] = target: T2, EGFR L858R/T790M (H1975-clone #36, homozygous) (Homo sapiens, UniProt P00533, L858R/T790M); experiment: EGFR degradation HTRF assay, H1975-clone #36 cells; assay type: cell-based; conditions: H1975 #36, 16h treatment; for Dmax: NCI-H1975, maximum percentage of degradation
T2 construct: designed to specifically target WT EGFR but preserve the L858R/T790M copy; host or cells: H1975-clone #36
Method: H1975-clone #36(L858R/T790M). H1975 cell heterozygously (from ATCC) contains alleles of WT and L858R/T790M EGFR. H1975-clone #36(L858R/T790M) was generated by gene knockout, in which the EGFR targeting sgRNA was designed to specifically target WT EGFR but preserve the L858R/T790M copy. Followed by the gene knockout, the edited H1975 cells were seeded in 96 well plates at the concentration of 1 cell/well, cultured for about 2 weeks to allow single clones formation. The formed clones were screened by DNA sequencing for the desired edition. H1975-clone #36 was confirmed as a homozygous L858R/T790M EGFR clone.
BaF3 WT(wild type), BaF3-LTC(L858R/T790M/C797S) and BaF3-DTC(Del19/T790M/C797S) cells are treated with compounds diluted in 0.2% DMSO cell culture medium and incubate for 16h, 37° C., 5% CO2, H1975-#36, H1975-#28, H1975-#23 and HCC827 cells are treated with compounds diluted in 0.2% DMSO cell culture medium on day 2, incubate for 16h, 37° C., 5% CO2.the final concentriation of compounds in all assay is start with 10 uM, 5-fold dilution, total 8 doses were included.
After 16h treatment, add HTRF lysis buffer to each well; seal the plate and incubate 1 hour at room temperature on a plate shaker; Once the cells are lysed, 16 μL of cell lysate are transferred to a PE 384-well HTRF detection plate; 4 μL of pre-mixed HTRF antibodies are added to each well; Cover the plate with a plate sealer, spin 1000 rpm for 1 min, Incubate overnight at room temperature; Read on BMG PheraStar with HTRF protocol (337 nm-665 nm-620 nm).
The inhibition (degradation) percentage of the compound was calculated by the following equation: Inhibition percentage of Compound=100-100×(Signal-low control)/(High control-low control), wherein signal=each test compound group
High control=Cell group with added DMSO and without compound, indicating microplate readings without EGFR degradation;
Dmax is the maximum percentage of inhibition (degradation).
The IC50 (DC50) value of a compound can be obtained by fitting the following equation
Y=Bottom+(TOP−Bottom)/(1+((IC50/X)^hillslope))
Wherein, X and Y are known values, and IC50, Hillslope, Top and Bottom are the parameters obtained by fitting with software. Y is the inhibition percentage (calculated from the equation), X is the concentration of the compound; IC50 is the concentration of the compound when the 50% inhibition is reached. The smaller the IC50 value is, the stronger the inhibitory ability of the compound is. Vice versa, the higher the IC50 value is, the weaker the inhibitory ability of the compound is; Hillslope represents the slope of the fitted curve, generally around 1*; Bottom represents the minimum value of the curve obtained by data fitting, which is generally 0%±20%; Top represents the maximum value of the curve obtained by data fitting, which is generally 100%±20%. The experimental data were fitted by calculating and analyzing with Dotmatics data analysis software.

T2 sequence (P00533 25-1210 T790M/L858R): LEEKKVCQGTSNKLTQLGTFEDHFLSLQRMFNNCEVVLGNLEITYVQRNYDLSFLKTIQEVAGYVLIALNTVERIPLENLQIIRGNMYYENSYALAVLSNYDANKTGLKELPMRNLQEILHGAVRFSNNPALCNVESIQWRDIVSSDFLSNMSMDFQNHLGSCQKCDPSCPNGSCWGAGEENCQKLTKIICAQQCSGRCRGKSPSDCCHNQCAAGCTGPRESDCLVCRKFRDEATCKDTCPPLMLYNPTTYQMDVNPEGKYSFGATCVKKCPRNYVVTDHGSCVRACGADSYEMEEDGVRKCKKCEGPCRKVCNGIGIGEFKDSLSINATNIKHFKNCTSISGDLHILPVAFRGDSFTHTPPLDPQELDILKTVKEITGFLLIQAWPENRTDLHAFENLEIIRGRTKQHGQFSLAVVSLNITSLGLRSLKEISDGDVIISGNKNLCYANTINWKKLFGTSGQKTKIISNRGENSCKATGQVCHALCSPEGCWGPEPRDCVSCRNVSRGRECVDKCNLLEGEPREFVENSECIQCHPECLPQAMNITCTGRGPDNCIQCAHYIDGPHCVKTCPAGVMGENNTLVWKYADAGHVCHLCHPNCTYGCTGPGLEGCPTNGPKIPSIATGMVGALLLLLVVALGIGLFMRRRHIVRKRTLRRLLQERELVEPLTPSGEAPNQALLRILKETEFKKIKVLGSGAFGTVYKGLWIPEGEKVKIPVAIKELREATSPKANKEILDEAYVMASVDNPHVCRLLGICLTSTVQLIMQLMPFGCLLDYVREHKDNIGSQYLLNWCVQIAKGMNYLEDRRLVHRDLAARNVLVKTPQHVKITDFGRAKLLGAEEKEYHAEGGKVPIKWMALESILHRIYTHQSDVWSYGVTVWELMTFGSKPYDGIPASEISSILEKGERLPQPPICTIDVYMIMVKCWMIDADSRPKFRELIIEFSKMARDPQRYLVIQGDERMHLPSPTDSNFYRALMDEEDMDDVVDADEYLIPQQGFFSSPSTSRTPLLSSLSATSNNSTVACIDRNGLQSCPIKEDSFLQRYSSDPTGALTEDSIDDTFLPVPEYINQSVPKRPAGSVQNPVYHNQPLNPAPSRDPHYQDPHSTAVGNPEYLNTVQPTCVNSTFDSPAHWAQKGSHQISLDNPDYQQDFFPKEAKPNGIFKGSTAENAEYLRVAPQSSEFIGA
T1 sequence (P00533 with tags, fused parts or gaps DEL746-750): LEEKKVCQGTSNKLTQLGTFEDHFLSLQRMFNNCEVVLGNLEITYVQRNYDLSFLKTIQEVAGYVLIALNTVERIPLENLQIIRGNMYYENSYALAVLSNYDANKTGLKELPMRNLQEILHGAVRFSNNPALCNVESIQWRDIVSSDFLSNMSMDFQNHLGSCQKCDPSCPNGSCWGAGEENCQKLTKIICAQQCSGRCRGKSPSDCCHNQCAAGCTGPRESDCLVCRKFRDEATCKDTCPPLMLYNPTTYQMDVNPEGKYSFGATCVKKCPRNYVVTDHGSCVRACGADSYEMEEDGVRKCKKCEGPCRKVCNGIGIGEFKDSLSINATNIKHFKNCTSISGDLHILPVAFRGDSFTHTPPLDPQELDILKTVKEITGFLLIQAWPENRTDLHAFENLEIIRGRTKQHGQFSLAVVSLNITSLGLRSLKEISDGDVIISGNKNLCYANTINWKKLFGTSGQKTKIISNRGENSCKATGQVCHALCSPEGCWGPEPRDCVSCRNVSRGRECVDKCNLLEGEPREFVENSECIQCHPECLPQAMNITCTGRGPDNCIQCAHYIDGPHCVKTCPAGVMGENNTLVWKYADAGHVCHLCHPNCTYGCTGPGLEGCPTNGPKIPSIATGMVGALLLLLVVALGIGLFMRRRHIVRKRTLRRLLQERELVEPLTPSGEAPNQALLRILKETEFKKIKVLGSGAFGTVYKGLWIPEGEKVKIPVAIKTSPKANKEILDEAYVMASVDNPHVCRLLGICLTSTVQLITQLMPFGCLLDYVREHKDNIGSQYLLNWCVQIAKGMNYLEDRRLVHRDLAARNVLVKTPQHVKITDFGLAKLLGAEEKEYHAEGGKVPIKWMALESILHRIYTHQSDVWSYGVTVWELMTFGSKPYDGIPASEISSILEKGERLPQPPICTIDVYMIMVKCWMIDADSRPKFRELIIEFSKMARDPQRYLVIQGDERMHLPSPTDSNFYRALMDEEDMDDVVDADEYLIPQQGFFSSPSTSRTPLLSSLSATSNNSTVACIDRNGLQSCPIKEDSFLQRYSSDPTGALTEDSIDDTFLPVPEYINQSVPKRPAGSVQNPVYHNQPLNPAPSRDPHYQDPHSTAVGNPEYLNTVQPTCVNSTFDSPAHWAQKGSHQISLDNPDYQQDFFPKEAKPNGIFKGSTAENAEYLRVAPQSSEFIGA

Row | Compound | DC50 (EGFR (HCC827 cells)) [µM] | Dmax (EGFR (HCC827 cells)) [%] | DC50 [1] [µM] | Dmax [1] [%]
1 | COc1cc(N2CCC(N(C)CC3CCN(c4ccc(C5CCC(=O)NC5=O)cc4)CC3)CC2)c(C)cc1Nc1ncc(Br)c(Nc2ccc3nccnc3c2P(C)(C)=O)n1 (stereo not shown) [Example 77, 3-(4-(4-(((1-(4-((5-bromo-4-((5-(dimethylphosphoryl)quinoxalin-6-yl)amino)pyrimidin-2-yl)amino)-5-methoxy-2-methylphenyl)piperidin-4-yl)(methyl)amino)methyl)piperidin-1-yl)phenyl)piperidine-2,6-dione] | 0.00918 | 70.9 | 0.00277 | 63
2 | COc1cc(N2CCC(N(C)CC3CCN(c4ccc(N5CCC(=O)NC5=O)cc4)CC3)CC2)c(C)cc1Nc1ncc(Br)c(Nc2ccc3nccnc3c2P(C)(C)=O)n1 [Example 79, 1-(4-(4-(((1-(4-((5-bromo-4-((5-(dimethylphosphoryl)quinoxalin-6-yl)amino)pyrimidin-2-yl)amino)-5-methoxy-2-methylphenyl)piperidin-4-yl)(methyl)amino)methyl)piperidin-1-yl)phenyl)dihydropyrimidine-2,4(1H,3H)-dione] | 0.0175 | 72.1 | > 10 | 18.6
3 | COc1cc(N2CCC(N(C)CC3CCN(c4ccc(N5CCC(=O)NC5=O)c(F)c4)CC3)CC2)c(C)cc1Nc1ncc(Br)c(Nc2ccc3nccnc3c2P(C)(C)=O)n1 [Example 81, 1-(4-(4-(((1-(4-((5-bromo-4-((5-(dimethylphosphoryl)quinoxalin-6-yl)amino)pyrimidin-2-yl)amino)-5-methoxy-2-methylphenyl)piperidin-4-yl)(methyl)amino)methyl)piperidin-1-yl)-2-fluorophenyl)dihydropyrimidine-2,4(1H,3H)-dione] | 0.0258 | 68.8 | > 10 | 5.13
4 | COc1cc(N2CCC(N(C)CC3CCN(c4ccc(N5CCC(=O)NC5=O)cc4F)CC3)CC2)c(C)cc1Nc1ncc(Br)c(Nc2ccc3nccnc3c2P(C)(C)=O)n1 [Example 82, 1-(4-(4-(((1-(4-((5-bromo-4-((5-(dimethylphosphoryl)quinoxalin-6-yl)amino)pyrimidin-2-yl)amino)-5-methoxy-2-methylphenyl)piperidin-4-yl)(methyl)amino)methyl)piperidin-1-yl)-3-fluorophenyl)dihydropyrimidine-2,4(1H,3H)-dione] | 0.0147 | 74 | > 10 | 12.2
5 | COc1cc(N2CCC(N(C)CC3CCN(c4ccc(N5CCC(=O)NC5=O)c(C)c4)CC3)CC2)c(C)cc1Nc1ncc(Br)c(Nc2ccc3nccnc3c2P(C)(C)=O)n1 [Example 83, 1-(4-(4-(((1-(4-((5-bromo-4-((5-(dimethylphosphoryl)quinoxalin-6-yl)amino)pyrimidin-2-yl)amino)-5-methoxy-2-methylphenyl)piperidin-4-yl)(methyl)amino)methyl)piperidin-1-yl)-2-methylphenyl)dihydropyrimidine-2,4(1H,3H)-dione] | 0.0203 | 74.2 | > 10 | 14.7
6 | COc1cc(N2CCC(N(C)CCCOc3ccc(N4CCC(=O)NC4=O)cc3)CC2)c(C)cc1Nc1ncc(Br)c(Nc2ccc3nccnc3c2P(C)(C)=O)n1 [Example 85, 1-(4-(3-((1-(4-((5-bromo-4-((5-(dimethylphosphoryl)quinoxalin-6-yl)amino)pyrimidin-2-yl)amino)-5-methoxy-2-methylphenyl)piperidin-4-yl)(methyl)amino)propoxy)phenyl)dihydropyrimidine-2,4(1H,3H)-dione] | 0.0733 | 75 | > 10 | 20.9
7 | COc1cc(N2CCN(CC3CCN(c4ccc(C5CCC(=O)NC5=O)cc4)CC3)CC2)c(C)cc1Nc1ncc(Br)c(Nc2ccc3nccnc3c2P(C)(C)=O)n1 (stereo not shown) [Example 88, 3-(4-(4-((4-(4-((5-bromo-4-((5-(dimethylphosphoryl)quinoxalin-6-yl)amino)pyrimidin-2-yl)amino)-5-methoxy-2-methylphenyl)piperazin-1-yl)methyl)piperidin-1-yl)phenyl)piperidine-2,6-dione] | 0.0219 | 68.7 | 0.00354 | 54.5
8 | COc1cc(N2CCN(CC3CCN(c4ccc(C5CCC(=O)NC5=O)cc4)CC3)CC2)ccc1Nc1ncc(Br)c(Nc2ccc3nccnc3c2P(C)(C)=O)n1 (stereo not shown) [Example 89, 3-(4-(4-((4-(4-((5-bromo-4-((5-(dimethylphosphoryl)quinoxalin-6-yl)amino)pyrimidin-2-yl)amino)-3-methoxyphenyl)piperazin-1-yl)methyl)piperidin-1-yl)phenyl)piperidine-2,6-dione] | 0.0596 | 91.8 | 0.00623 | 84.7
9 | COc1cc(N2CCN(CCC3CCN(c4ccc(C5CCC(=O)NC5=O)cc4)CC3)CC2)c(C)cc1Nc1ncc(Br)c(Nc2ccc3nccnc3c2P(C)(C)=O)n1 (stereo not shown) [Example 90, 3-(4-(4-(2-(4-(4-((5-bromo-4-((5-(dimethylphosphoryl)quinoxalin-6-yl)amino)pyrimidin-2-yl)amino)-5-methoxy-2-methylphenyl)piperazin-1-yl)ethyl)piperidin-1-yl)phenyl)piperidine-2,6-dione] | 0.0128 | 81.4 | 0.00653 | 77.5
10 | COc1cc(N2CCN(CC3CCN(c4ccc(N5CCC(=O)NC5=O)cc4)CC3)CC2)c(C)cc1Nc1ncc(Br)c(Nc2ccc3nccnc3c2P(C)(C)=O)n1 [Example 95, 1-(4-(4-((4-(4-((5-bromo-4-((5-(dimethylphosphoryl)quinoxalin-6-yl)amino)pyrimidin-2-yl)amino)-5-methoxy-2-methylphenyl)piperazin-1-yl)methyl)piperidin-1-yl)phenyl)dihydropyrimidine-2,4(1H,3H)-dione] | 0.147 | 71.3 | 9.03 | 61.6
11 | COc1cc(N2CCN(CC3CCN(c4ccc(N5CCC(=O)NC5=O)c(F)c4)CC3)CC2)c(C)cc1Nc1ncc(Br)c(Nc2ccc3nccnc3c2P(C)(C)=O)n1 [Example 96, 1-(4-(4-((4-(4-((5-bromo-4-((5-(dimethylphosphoryl)quinoxalin-6-yl)amino)pyrimidin-2-yl)amino)-5-methoxy-2-methylphenyl)piperazin-1-yl)methyl)piperidin-1-yl)-2-fluorophenyl)dihydropyrimidine-2,4(1H,3H)-dione] | 0.151 | 67 | > 10 | 7.3
12 | COc1cc(N2CCN(CC3CCN(c4ccc(N5CCC(=O)NC5=O)cc4F)CC3)CC2)c(C)cc1Nc1ncc(Br)c(Nc2ccc3nccnc3c2P(C)(C)=O)n1 [Example 97, 1-(4-(4-((4-(4-((5-bromo-4-((5-(dimethylphosphoryl)quinoxalin-6-yl)amino)pyrimidin-2-yl)amino)-5-methoxy-2-methylphenyl)piperazin-1-yl)methyl)piperidin-1-yl)-3-fluorophenyl)dihydropyrimidine-2,4(1H,3H)-dione] | 0.118 | 62.8 | > 10 | 11.2
13 | COc1cc(N2CCN(CC3CCN(c4ccc(N5CCC(=O)NC5=O)cc4C)CC3)CC2)c(C)cc1Nc1ncc(Br)c(Nc2ccc3nccnc3c2P(C)(C)=O)n1 [Example 98, 1-(4-(4-((4-(4-((5-bromo-4-((5-(dimethylphosphoryl)quinoxalin-6-yl)amino)pyrimidin-2-yl)amino)-5-methoxy-2-methylphenyl)piperazin-1-yl)methyl)piperidin-1-yl)-3-methylphenyl)dihydropyrimidine-2,4(1H,3H)-dione] | 0.166 | 62.3 | > 10 | 8.3
